Measurements reported in patent publication US9447136B2, “Semisynthetic derivatives of Nystatin A1” (BLIRT S.A., priority 2012, dated 2016).
Like-named read-outs stand apart in the source and are kept apart here.

Experiments:
[1] = test system: Candida tropicalis KKP 334; assay: Antifungal activity in vitro, serial dilution in RPMI 1640; assay type: cell-based; conditions: Table 2A; RPMI 1640, pH 7.0
Experimental: (§1) For the determination of antifungal activity in vitro we used method of serial dilution in buffered medium RPMI 1640, pH 7.0, in a 96-wells microplates, according to the standard procedure (National Committee for Clinical Laboratory Standards. Reference method for broth dilution antifungal susceptibility testing of yeast, approved standard, 2nd ed. M27-A2 vol. 22 Wayne, Pa., 2002). The optical density of cells suspension was measured using a microplates reader (Victor^3, Perkin-Elmer) at the wavelength λ=531 nm (A531). On the basis of obtained results the diagrams of relation between A531 values and concentration of examined compound were made. From these graphs, the IC50 values were read, which were the interpolated concentrations of a tested compound, at which the A531 value was exactly 50% of the A531 value for the control sample. Moreover, MIC values, that are the lowest concentration of tested compound at which the A531 value were at most 20% of the A531 value measured for the control sample.

[2] = test system: Candida albicans ATCC 10231; assay: as above; assay type: cell-based; conditions: Table 2A, RPMI 1640, pH 7.0; for Antifungal activity Candida albicans ATCC 10231 IC50: A531 50% of control; for Antifungal activity Candida albicans ATCC 10231 MIC: A531 at most 20% of control
Experimental: as §1

[3] = test system: Saccharomyces cerevisiae ATCC 9763; assay: as above; assay type: cell-based; conditions: Table 2A; RPMI 1640, pH 7.0; A531 at most 20% of control
Experimental: as §1

[4] = test system: Candida glabrata DSM 11226; assay: as above; assay type: cell-based; conditions: Table 2A; RPMI 1640, pH 7.0
Experimental: as §1

Candida krusei DSM 6128 = assay: as above; assay type: cell-based; conditions: Table 2A; RPMI 1640, pH 7.0
Experimental: as §1

[5] = test system: Candida lusitaniae DSM 70102; assay: as above; assay type: cell-based; conditions: Table 2A; RPMI 1640, pH 7.0
Experimental: as §1

Human erythrocytes = assay: Hemotoxicity (hemolytic activity)
Experimental: The hemotoxicity determination were carried out by the serial dilutions method, according to the procedure described earlier (Ślisz, M., et al., E., J Antibiot 57: 669-678 (2004)). Human erythrocytes were suspensed in the solution of saline to obtain a cell density of suspension 2×10^7/ml. Suitable amounts of diluted solutions of compounds were added to the cell suspension in tubes and were incubated at 37° C. for 30 minutes and then centrifuged (1700×g, 10 min, 4° C.). The concentration of hemoglobin in supernatant after centrifugation of erythrocytes suspension were determined by measuring the absorbance at wavelength λ=540 nm (A540). The maximum level of hemolysis was obtained after incubation of cells suspension in the presence of 0.1% Tritone X-100 (control sample). […] From these graphs, the EH50 values were read which are the interpolated concentrations of compound, for which the A540 value is exactly 50% of the A540 value measured for the control sample.

CCRF-CEM = assay: Cytotoxic activity against mammalian cells in tissue culture (MTT); assay type: cell-based, human; conditions: CCRF-CEM, 120 h, MTT
Experimental: (§2) For examinations were used selected cell lines: CCRF-CEM—human acute lymphoblastic leukemia; HepG2—human malignant hepatoma; LLC-PK1—epithelial cell of pig kidney; All lines were from ATCC collection.
(§3) The study are conducted using described below methods of culturing and determination of cytotoxic activity.
(§4) CCRF-CEM cells were cultured in medium RPMI 1640+10% fetal bovine serum (FBS), LLC-PK1 cells in medium Medium 199+3% FBS, HepG2 cells in medium MEM+10% FBS. All media contained 100 μg/ml of penicillin G and streptomycin. 24-wells microplates containing appropriate medium were inoculated with the cells in amount of 1.2×10^4 cells/well and allowed to stand overnight. Next, tested compounds as solution in dimethylsulfoxide (DMSO) were added in volume of 10 μl (serial 2× dilutions). To control well 10 μl of DMSO was added. Microplates with cell suspensions were incubated for 120 h at temperature 37° C. at atmosphere of 95%/5% CO2. After incubation, to all wells 200 μl of solution of 3-(4,5-dimethylthiazole-2-yl)-2,5-diphenylotetrazole bromide (MTT) in PBS (4 mg/ml) was added and plates were further incubated for 4 h at 37° C. Next, to dissolve crystals of formazane 1 ml of DMSO was added and absorption of solutions was measured at the wavelength λ=540 nm (A540), using a microplates reader (Victor^3, Perkin-Wallac). […] From these graphs IC50 values were read, that is concentration of tested compound in the presence at which A540 value is half of A540 value measured in the control sample.

HepG2 = assay: as above; assay type: cell-based, human; conditions: HepG2, 120 h, MTT
Experimental: as §2, §3, §4

Compound	Antifungal activity Candida tropicalis KKP 334 MIC [1] [µg/mL]	Antifungal activity Candida albicans ATCC 10231 IC50 [2] [µg/mL]	Antifungal activity Candida albicans ATCC 10231 MIC [2] [µg/mL]	Antifungal activity Saccharomyces cerevisiae ATCC 9763 MIC [3] [µg/mL]	Antifungal activity Candida glabrata DSM 11226 MIC [4] [µg/mL]	Antifungal activity Candida krusei DSM 6128 MIC (Candida krusei DSM 6128) [µg/mL]	Antifungal activity Candida lusitaniae DSM 70102 MIC [5] [µg/mL]	EH10 (Human erythrocytes; human erythrocytes, concentration causing 10% of hemolysis) [µg/mL]	Hemotoxicity BEH50 (Human erythrocytes; human erythrocytes, 37° C., 30 minutes, concentration causing 50% hemolysis, maximum concentration 300 μg/ml) [µg/mL]	% of hemolysis at the concentration 60 μg ml^−1 (Human erythrocytes; human erythrocytes, 60 μg ml^−1) [%]	Cytotoxicity IC50 CCRF-CEM (CCRF-CEM) [µg/mL]	Cytotoxicity IC50 HepG2 (HepG2) [µg/mL]	EH10 (Human erythrocytes) [µg/mL]
CC1OC(O[C@H]2/C=C/C=C/C=C/C=C/CC/C=C/C=C/[C@H](C)[C@@H](O)[C@@H](C)[C@H](C)OC(=O)C[C@H](O)C[C@H](O)C[C@H](O)CC[C@@H](O)[C@H](O)CC3(O)C[C@H](O)[C@@H](C(=O)O)[C@H](C2)O3)C(O)C(NC2CC(=O)N(CCN3CCCCC3)C2=O)C1O (stereo partly shown) [Compound N8, N—[N′-2-(piperidin-1-yl)ethylsuccinimidyl]nystatin A1]	2	1.54	2	2	4	4	2	150.73	–	–	–	–	–
CC1OC(O[C@H]2/C=C/C=C/C=C/C=C/CC/C=C/C=C/[C@H](C)[C@@H](O)[C@@H](C)[C@H](C)OC(=O)C[C@H](O)C[C@H](O)C[C@H](O)CC[C@@H](O)[C@H](O)CC3(O)C[C@H](O)[C@@H](C(=O)O)[C@H](C2)O3)C(O)C(NC(=O)[C@@H](N)Cc2ccccc2)C1O (stereo partly drawn) [Compound N34, N-L-phenylalanylnystatin A1]	8	6.01	8	4	8	8	–	–	>300	0.02	>100	>100	–
C[C@@H]1[C@H](O)[C@@H](C)/C=C/C=C/CC/C=C/C=C/C=C/C=C/[C@H](O[C@@H]2O[C@H](C)[C@@H](O)[C@H](N(C)C)[C@@H]2O)C[C@@H]2O[C@](O)(C[C@@H](O)C[C@@H](O)[C@H](O)CC[C@@H](O)C[C@@H](O)CC(=O)O[C@H]1C)C[C@H](O)[C@H]2C(=O)O [Compound N23, N,N-dimethylnystatin A1]	4	2.47	4	4	8	8	2	–	–	–	–	–	214.20
C[C@@H]1[C@H](O)[C@@H](C)/C=C/C=C/CC/C=C/C=C/C=C/C=C/[C@H](O[C@@H]2O[C@H](C)[C@@H](O)[C@H](NC(=S)NCCN3CCN(C)CC3)[C@@H]2O)C[C@@H]2O[C@](O)(C[C@@H](O)C[C@@H](O)[C@H](O)CC[C@@H](O)C[C@@H](O)CC(=O)O[C@H]1C)C[C@H](O)[C@H]2C(=O)O [Compound N15, N-{3-[2-(4-methylpiperazin-1-yl)ethyl]thioureidyl}nystatin A1]	8	5.74	8	8	16	16	4	–	–	–	–	–	–
N-{3-[2-(piperidin-1-yl)ethyl]thioureidyl}nystatin A1 [Compound N12]	8	4.20	8	8	8	16	4	–	–	–	–	–	–
N-{3-[3-(imidazo-1-yl)propyl]thioureidyl}nystatin A1 [Compound N20]	8	6.47	8	8	16	16	8	–	–	–	–	–	–
CC1OC(O[C@H]2/C=C/C=C/C=C/C=C/CC/C=C/C=C/[C@H](C)[C@@H](O)[C@@H](C)[C@H](C)OC(=O)C[C@H](O)C[C@H](O)C[C@H](O)CC[C@@H](O)[C@H](O)CC3(O)C[C@H](O)[C@@H](C(=O)O)[C@H](C2)O3)C(O)C(NC2CC(=O)N(CCN3CCN(C)CC3)C2=O)C1O (stereo partly shown) [Compound N9, N—[N′-2-(4-methylpiperazin-1-yl)ethylsuccinimidyl]nystatin A1]	8	5.62	8	8	16	16	4	–	–	–	–	–	–
CCN(CC1(O)OCC(O)C(O)C1O)C1C(O)C(C)OC(OC2C=CC=CC=CC=CCCC=CC=CC(C)C(O)C(C)C(C)OC(=O)CC(O)CC(O)CC(O)CCC(O)C(O)CC3(O)CC(O)C(C(=O)O)C(C2)O3)C1O (stereo not shown) [Compound N29, N-fructosyl-N-ethylnystatin A1]	8	3.56	8	8	16	16	8	–	–	–	–	–	–
